Results as given in US11613542B2, “Sulfonylureas and sulfonylthioureas as NLRP3 inhibitors” (Inflazome Limited, priority 2017, dated 2023).
Where a name gives a salt, the structure may show the parent alone.

Key:
NLRP3 [1] = target: T1, NLRP3 (Homo sapiens, UniProt Q96P20); test: THP-1 cells pyroptosis assay; type: cell-based; design: Seed THP-1 cells (25,000 cells/well) containing 1.0 μg/ml LPS; host or cells: THP-1 cells, LPS-primed, nigericin-stimulated; details: THP-1 cells, 1.0 μg/ml LPS, compound 3 hrs, nigericin 5 μM 1 hr, resazurin readout; read-out: THP IC50
In short: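 THP-1 cells (25,000/well) in serum-free RPMI with 1.0 μg/ml LPS, treated with compound (8-point half-log dilution, 10 μM top, 0.1% DMSO), then nigericin 5 μM final. Viability read by resazurin (100 μM final, 1-2 h, 37° C) fluorescence Ex 560/Em 590 nm; IC50 from 4-parameter variable-slope fit.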

NLRP3 [2] = target: T1, NLRP3; test: Human whole blood IL1β release assay; type: cell-based; design: Human whole blood in Li-heparin tubes was obtained from healthy donors; from tissue; host or cells: human whole blood from healthy donors, LPS-primed, nigericin-stimulated; details: human whole blood, 1 μg/ml LPS, compound 3 hrs, nigericin 10 μM 1 hr, IL-1β AlphaLisa; read-out: HWB IC50
Procedure: Human Whole Blood IL1β Release Assay
For systemic delivery, the ability to inhibit NLRP3 when the compounds are present within the bloodstream is of great importance. For this reason, the NLRP3 inhibitory activity of a number of compounds in human whole blood was investigated in accordance with the following protocol.
Human whole blood in Li-heparin tubes was obtained from healthy donors from a volunteer donor panel. • 1. Plate out 80 μl of whole blood containing 1 μg/ml of LPS in 96-well, clear bottom cell culture plate (Corning #3585) • 2. Add 10 μl compound (8 points half-log dilution with 10 μM top dose) or vehicle (DMSO 0.1% FAC) to the appropriate wells • 3. Incubate for 3 hrs at 37° C., 5% CO2 • 4. Add 10 μl Nigericin (Sigma #N7143) (10 μM FAC) to all wells • 5. Incubate for 1 hr at 37° C., 5% CO2 • 6. At the end of the incubation period, spin plates at 300 xg for 5 mins to pellet cells and remove 20 μl of supernatant and add to 96-well v-bottom plates for IL-1β analysis (note: these plates containing the supernatants can be stored at −80° C. to be analysed at a later date) • 7. IL-1β was measured according to the manufacturer protocol (Perkin Elmer-AlphaLisa IL-1 Kit AL220F-5000) • 8. IC50 data is fitted to a non-linear regression equation (log inhibitor vs response-variable slope 4-parameters)

T1 sequence (Q96P20 whole entry): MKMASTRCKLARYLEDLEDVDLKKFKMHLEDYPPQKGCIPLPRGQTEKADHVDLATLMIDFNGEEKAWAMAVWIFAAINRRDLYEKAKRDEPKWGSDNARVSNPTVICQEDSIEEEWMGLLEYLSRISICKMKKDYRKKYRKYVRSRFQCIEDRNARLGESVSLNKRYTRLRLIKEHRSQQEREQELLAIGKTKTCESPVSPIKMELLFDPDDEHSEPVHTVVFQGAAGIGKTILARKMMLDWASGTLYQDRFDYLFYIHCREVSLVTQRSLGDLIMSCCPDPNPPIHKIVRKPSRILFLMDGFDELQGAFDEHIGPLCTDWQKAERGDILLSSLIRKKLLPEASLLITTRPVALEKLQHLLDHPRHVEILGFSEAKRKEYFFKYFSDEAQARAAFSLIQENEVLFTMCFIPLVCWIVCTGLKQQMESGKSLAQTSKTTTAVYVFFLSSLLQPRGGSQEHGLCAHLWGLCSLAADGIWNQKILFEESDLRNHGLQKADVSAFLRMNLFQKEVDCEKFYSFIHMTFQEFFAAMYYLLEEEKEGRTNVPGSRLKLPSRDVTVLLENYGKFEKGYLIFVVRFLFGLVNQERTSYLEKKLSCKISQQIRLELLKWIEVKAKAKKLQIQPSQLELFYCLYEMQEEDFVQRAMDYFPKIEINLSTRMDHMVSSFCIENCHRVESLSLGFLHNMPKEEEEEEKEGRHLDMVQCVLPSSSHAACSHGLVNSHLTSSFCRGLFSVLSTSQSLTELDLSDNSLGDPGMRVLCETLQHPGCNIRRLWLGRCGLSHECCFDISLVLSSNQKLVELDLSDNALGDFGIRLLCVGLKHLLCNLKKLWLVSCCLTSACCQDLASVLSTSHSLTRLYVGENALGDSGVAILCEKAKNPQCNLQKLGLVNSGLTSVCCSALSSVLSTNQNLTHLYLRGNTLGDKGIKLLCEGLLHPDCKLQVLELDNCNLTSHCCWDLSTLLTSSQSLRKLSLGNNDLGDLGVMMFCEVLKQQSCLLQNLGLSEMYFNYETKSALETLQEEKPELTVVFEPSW

| Structure (SMILES) | IC50 (NLRP3 [1]) | IC50 (NLRP3 [2]) |
| --- | --- | --- |
| COc1cc(-c2ccc3c(c2NC(=O)NS(=O)(=O)c2ccn(CCN(C)C)n2)CCC3)ccn1 [Example 26, 1-(2-(Dimethylamino)ethyl)-N-((5-(2-methoxypyridin-4-yl)-2,3-dihydro-1H-inden-4-yl)carbamoyl)-1H-pyrazole-3-sulfonamide] | < 160 nM | < 400 nM |
| CN(C)CCn1cnc(S(=O)(=O)NC(=O)Nc2c3c(cc4c2CCC4)CCC3)n1 [Example 27, 1-(2-(Dimethylamino)ethyl)-N-((1,2,3,5,6,7-hexahydro-s-indacen-4-yl)carbamoyl)-1H-1,2,4-triazole-3-sulfonamide] | < 640 nM | < 800 nM |
| CN(C)CCn1ccc(S(=O)(=O)NC(=O)Nc2c(-c3cccnc3)cc(F)c3c2CCC3)n1 [Example 28, 1-(2-(Dimethylamino)ethyl)-N-((7-fluoro-5-(pyridin-3-yl)-2,3-dihydro-1H-inden-4-yl)carbamoyl)-1H-pyrazole-3-sulfonamide] | < 640 nM | < 3200 nM |
| COc1cc(-c2cc(F)c3c(c2NC(=O)NS(=O)(=O)c2ccn(CCN(C)C)n2)CCC3)ccn1 [Example 29, 1-(2-(Dimethylamino)ethyl)-N-((7-fluoro-5-(2-methoxypyridin-4-yl)-2,3-dihydro-1H-inden-4-yl)carbamoyl)-1H-pyrazole-3-sulfonamide] | < 40 nM | < 400 nM |
| CC(C)c1cc(F)cc(-c2cccnc2)c1NC(=O)NS(=O)(=O)c1ccn(CCN(C)C)n1 [Example 30, 1-(2-(Dimethylamino)ethyl)-N-((4-fluoro-2-isopropyl-6-(pyridin-3-yl)phenyl)carbamoyl)-1H-pyrazole-3-sulfonamide] | < 640 nM | < 800 nM |
| CC(C)(C#N)n1ccc(S(=O)(=O)NC(=O)Nc2c3c(cc4c2CCC4)CCC3)n1 [Example 33, 1-(2-Cyanopropan-2-yl)-N-((1,2,3,5,6,7-hexahydro-s-indacen-4-yl)carbamoyl)-1H-pyrazole-3-sulfonamide] | < 160 nM | < 1600 nM |
| N#CCn1ccc(S(=O)(=O)NC(=O)Nc2c3c(cc4c2CCC4)CCC3)n1 [Example 34, 1-(Cyanomethyl)-N-((1,2,3,5,6,7-hexahydro-s-indacen-4-yl)carbamoyl)-1H-pyrazole-3-sulfonamide] | < 640 nM | < 3200 nM |
| O=C(Nc1c2c(cc3c1CCC3)CCC2)NS(=O)(=O)c1ccn(Cc2ncco2)n1 [Example 35, N-((1,2,3,5,6,7-Hexahydro-s-indacen-4-yl)carbamoyl)-1-(oxazol-2-ylmethyl)-1H-pyrazole-3-sulfonamide] | < 160 nM | < 10000 nM |
| Cn1ccnc1Cn1ccc(S(=O)(=O)NC(=O)Nc2c3c(cc4c2CCC4)CCC3)n1 [Example 118, N-((1,2,3,5,6,7-Hexahydro-s-indacen-4-yl)carbamoyl)-1-((1-methyl-1H-imidazol-2-yl)methyl)-1H-pyrazole-3-sulfonamide] | < 40 nM | < 800 nM |
| CN(C)C1(c2cc(S(=O)(=O)NC(=O)Nc3c4c(cc5c3CCC5)CCC4)nn2C)COC1 [Example 122, 5-(3-(Dimethylamino)oxetan-3-yl)-N-((1,2,3,5,6,7-hexahydro-s-indacen-4-yl)carbamoyl)-1-methyl-1H-pyrazole-3-sulfonamide] | < 640 nM | < 1600 nM |
| COCCN(C)Cc1cc(S(=O)(=O)NC(=O)Nc2c3c(cc4c2CCC4)CCC3)nn1C [Example 126, N-((1,2,3,5,6,7-Hexahydro-s-indacen-4-yl)carbamoyl)-5-(((2-methoxyethyl)(methyl)amino)methyl)-1-methyl-1H-pyrazole-3-sulfonamide, sodium salt] | < 640 nM | < 3200 nM |
| CC(=O)N(C)Cc1cc(S(=O)(=O)NC(=O)Nc2c3c(cc4c2CCC4)CCC3)nn1C(C)C [Example 129, N-((3-(N-((1,2,3,5,6,7-Hexahydro-s-indacen-4-yl)carbamoyl)sulfamoyl)-1-isopropyl-1H-pyrazol-5-yl)methyl)-N-methylacetamide] | < 160 nM | < 800 nM |
| CNC(=O)c1cc(S(=O)(=O)NC(=O)Nc2c(C(C)C)cc(Cl)cc2C(C)C)nn1C [Example 132, 3-(N-((4-chloro-2,6-diisopropylphenyl)carbamoyl)sulfamoyl)-N,1-dimethyl-1H-pyrazole-5-carboxamide] | < 640 nM | < 3200 nM |
| CC(C)c1cccc(C(C)C)c1NC(=O)NS(=O)(=O)c1cc(C(=O)N2CC(F)C2)n(C)n1 [Example 139, N-((2,6-Diisopropylphenyl)carbamoyl)-5-(3-fluoroazetidine-1-carbonyl)-1-methyl-1H-pyrazole-3-sulfonamide, sodium salt] | < 2560 nM | < 1600 nM |
| CC(C)c1cccc(C(C)C)c1NC(=O)NS(=O)(=O)c1cc(C(=O)N(C)C2CC2)n(C)n1 [Example 143, N-Cyclopropyl-3-(N-((2,6-diisopropylphenyl)carbamoyl)sulfamoyl)-N,1-dimethyl-1H-pyrazole-5-carboxamide] | < 160 nM | < 1600 nM |
| CC(C)c1ccc(C(C)C)c(NC(=O)NS(=O)(=O)c2cc(C(=O)N(C)C)n(C)n2)c1 [Example 144, 3-(N-((2,5-Diisopropylphenyl)carbamoyl)sulfamoyl)-N,N,1-trimethyl-1H-pyrazole-5-carboxamide, sodium salt] | < 640 nM | < 10000 nM |
| CC(C)c1cc(F)cc(C(C)C)c1NC(=O)NS(=O)(=O)c1cc(C(=O)N(C)C(C)C)n(C)n1 [Example 147, 3-(N-((4-Fluoro-2,6-diisopropylphenyl)carbamoyl)sulfamoyl)-N-isopropyl-N,1-dimethyl-1H-pyrazole-5-carboxamide] | < 160 nM | < 800 nM |
| CCN(C)C(=O)c1cc(S(=O)(=O)NC(=O)Nc2c(C(C)C)cc(F)cc2C(C)C)nn1C [Example 149, N-Ethyl-3-(N-((4-fluoro-2,6-diisopropylphenyl)carbamoyl)sulfamoyl)-N,1-dimethyl-1H-pyrazole-5-carboxamide, sodium salt] | < 640 nM | < 800 nM |
| CNC(=O)c1cc(S(=O)(=O)NC(=O)Nc2c(C(C)C)cc(F)cc2C(C)C)nn1C [Example 150, 3-(N-((4-Fluoro-2,6-diisopropylphenyl)carbamoyl)sulfamoyl)-N,1-dimethyl-1H-pyrazole-5-carboxamide] | < 640 nM | < 400 nM |
| CC(C)c1cccc(C(C)C)c1NC(=O)NS(=O)(=O)c1cc(C(=O)N2CCC2)n(C)n1 [Example 151, 5-(Azetidine-1-carbonyl)-N-((2,6-diisopropylphenyl)carbamoyl)-1-methyl-1H-pyrazole-3-sulfonamide] | < 640 nM | < 400 nM |
| CN(C(=O)c1cc(S(=O)(=O)NC(=O)Nc2c3c(cc4c2CCC4)CCC3)nn1C)C1CC1 [Example 152, N-Cyclopropyl-3-(N-((1,2,3,5,6,7-hexahydro-s-indacen-4-yl)carbamoyl)sulfamoyl)-N,1-dimethyl-1H-pyrazole-5-carboxamide] | < 160 nM | < 800 nM |
| CN(CC#N)C(=O)c1cc(S(=O)(=O)NC(=O)Nc2c3c(cc4c2CCC4)CCC3)nn1C [Example 153, N-(Cyanomethyl)-3-(N-((1,2,3,5,6,7-hexahydro-s-indacen-4-yl)carbamoyl)sulfamoyl)-N,1-dimethyl-1H-pyrazole-5-carboxamide, partial ammonium salt] | < 640 nM | < 1600 nM |
| Cn1nc(S(=O)(=O)NC(=O)Nc2c3c(cc4c2CCC4)CCC3)cc1C(=O)N1CCC1 [Example 154, 5-(Azetidine-1-carbonyl)-N-((1,2,3,5,6,7-hexahydro-s-indacen-4-yl)carbamoyl)-1-methyl-1H-pyrazole-3-sulfonamide] | < 160 nM | < 3200 nM |
| CNC(=O)c1cc(S(=O)(=O)NC(=O)Nc2c(C(C)C)cccc2C(C)C)nn1C [Example 155, 3-(N-((2,6-Diisopropylphenyl)carbamoyl)sulfamoyl)-N,1-dimethyl-1H-pyrazole-5-carboxamide] | < 640 nM | < 800 nM |
| CCN(C)C(=O)c1cc(S(=O)(=O)NC(=O)Nc2c(C(C)C)cccc2C(C)C)nn1C [Example 156, 3-(N-((2,6-Diisopropylphenyl)carbamoyl)sulfamoyl)-N-ethyl-N,1-dimethyl-1H-pyrazole-5-carboxamide] | < 2560 nM | < 3200 nM |
